Experiments:
Type in all cases: cell-based, human
HCC-2998 = test: NCI in vitro cancer screen, Colon Cancer; settings: HCC-2998, Colon Cancer
NCI-H460 = test: NCI in vitro cancer screen, Non-Small Cell Lung Cancer; settings: NCI-H460, Non-Small Cell Lung Cancer
LOX IMVI = test: NCI in vitro cancer screen, Melanoma; settings: Melanoma
COLO 205 = test: NCI in vitro cancer screen, Colon Cancer; settings: COLO 205, Colon Cancer
MOLT-4 = test: NCI in vitro cancer screen, Leukemia; settings: MOLT-4, Leukemia
SK-MEL-5 = test: NCI in vitro cancer screen, Melanoma; settings: SK-MEL-5, Melanoma
HOP-92 = test: NCI in vitro cancer screen, Non-Small Cell Lung Cancer; settings: HOP-92, Non-Small Cell Lung Cancer
NCI-H23 = test: as above; settings: NCI-H23, Non-Small Cell Lung Cancer
MALME-3M = test: NCI in vitro cancer screen, Melanoma; settings: MALME-3M, Melanoma
OVCAR-4 = test: NCI in vitro cancer screen, Ovarian Cancer; settings: OVCAR-4, Ovarian Cancer
OVCAR-8 = test: NCI in vitro cancer screen, Ovarian Cancer; settings: OVCAR-8, Ovarian Cancer
HCT-15 = test: NCI in vitro cancer screen, Colon Cancer; settings: HCT-15, Colon Cancer
ADR-RES (NCI/ADR-RES) = test: NCI in vitro cancer screen, Ovarian Cancer; settings: NCI/ADR-RES, Ovarian Cancer
OVCAR-5 = test: NCI in vitro cancer screen, Ovarian Cancer; settings: OVCAR-5, Ovarian Cancer
UACC-62 = test: NCI in vitro cancer screen, Melanoma; settings: UACC-62, Melanoma
SNB-19 = test: NCI in vitro cancer screen, CNS Cancer; settings: SNB-19, CNS Cancer
PC-3 = test: NCI in vitro cancer screen, Prostate Cancer; settings: PC-3, Prostate Cancer
M14 = test: NCI in vitro cancer screen, Melanoma; settings: M14, Melanoma
ACHN = test: NCI in vitro cancer screen, Renal Cancer; settings: Renal Cancer
HCT-116 = test: NCI in vitro cancer screen, Colon Cancer; settings: HCT-116, Colon Cancer
SK-OV-3 = test: NCI in vitro cancer screen, Ovarian Cancer; settings: SK-OV-3, Ovarian Cancer
NCI-H522 = test: NCI in vitro cancer screen, Non-Small Cell Lung Cancer; settings: NCI-H522, Non-Small Cell Lung Cancer
SK-MEL-28 = test: NCI in vitro cancer screen, Melanoma; settings: SK-MEL-28, Melanoma
DU-145 = test: NCI in vitro cancer screen, Prostate Cancer; settings: DU-145, Prostate Cancer
CAKI-1 = test: NCI in vitro cancer screen, Renal Cancer; settings: CAKI-1, Renal Cancer
SK-MEL-2 = test: NCI in vitro cancer screen, Melanoma; settings: SK-MEL-2, Melanoma
KM12 = test: NCI in vitro cancer screen, Colon Cancer; settings: KM12, Colon Cancer
[1] = test system: MDA-MB-231 (MDA-MB-231/ATCC); test: NCI in vitro cancer screen, Breast Cancer; settings: MDA-MB-231/ATCC, Breast Cancer
U251 = test: NCI in vitro cancer screen, CNS Cancer; settings: U251, CNS Cancer
[2] = Homo sapiens, read-out: LC50 (the source's name)

`CC(C)=CCOc1cc(O)cc(/C=C/c2ccc(O)c(O)c2)c1CC=C(C)C` [USYDS14, (E)-2-(3-methyl-2-buten-1-yl)-3-(3-methyl-2-butenyloxy)-3′,4′,5-trihydroxystilbene] was tested, and the TGI (HCC-2998) was 10.6 µM, the GI50 (HCC-2998; Homo sapiens) was 2.9 µM and the CC50 (HCC-2998; [2]) was 40.7 µM. It also gave a GI50 (NCI-H460; Homo sapiens) of 3.87 µM, a CC50 (NCI-H460; [2]) of 51.2 µM and a TGI (NCI-H460) of 14.9 µM. For the same molecule, the GI50 (LOX IMVI; Homo sapiens) was 1.36 µM, the CC50 (LOX IMVI; [2]) was 8.35 µM and the TGI (LOX IMVI) was 3.37 µM. For the same molecule, the TGI (COLO 205) was 28.5 µM, the GI50 (COLO 205; Homo sapiens) was 14.6 µM and the CC50 (COLO 205; [2]) was 55.7 µM. It also gave a GI50 (MOLT-4; Homo sapiens) of 4.03 µM, a CC50 (MOLT-4; [2]) of over 100 µM and a TGI (MOLT-4) of 21 µM. For the same molecule, the GI50 (SK-MEL-5; Homo sapiens) was 0.554 µM, the CC50 (SK-MEL-5; [2]) was 4.46 µM and the TGI (SK-MEL-5) was 1.87 µM. For the same molecule, the TGI (HOP-92) was 7.58 µM, the GI50 (HOP-92; Homo sapiens) was 1.49 µM and the CC50 (HOP-92; [2]) was 32.9 µM. The GI50 (NCI-H23; Homo sapiens) was 2.92 µM, the LC50 (NCI-H23; Homo sapiens) was 57.6 µM and the TGI (NCI-H23) was 17.3 µM. It also gave a GI50 (MALME-3M; Homo sapiens) of 3.14 µM, a CC50 (MALME-3M; [2]) of 54.8 µM and a TGI (MALME-3M) of 21.8 µM. It also gave a GI50 (OVCAR-4; Homo sapiens) of 2.98 µM, a CC50 (OVCAR-4; [2]) of 38.6 µM and a TGI (OVCAR-4) of 13.6 µM. The GI50 (OVCAR-8; Homo sapiens) was 3.59 µM, the CC50 (OVCAR-8; [2]) was 64.9 µM and the TGI (OVCAR-8) was 15.6 µM. The TGI (HCT-15) was 10.4 µM, the GI50 (HCT-15; Homo sapiens) was 2.06 µM and the CC50 (HCT-15; [2]) was 43.3 µM. It also gave a GI50 (ADR-RES (NCI/ADR-RES); Homo sapiens) of 0.78 µM, a CC50 (ADR-RES (NCI/ADR-RES); [2]) of 49.3 µM and a TGI (ADR-RES (NCI/ADR-RES)) of 11.4 µM. The GI50 (OVCAR-5; Homo sapiens) was 12.4 µM, the CC50 (OVCAR-5; [2]) was 53.6 µM and the TGI (OVCAR-5) was 25.8 µM. It also gave a GI50 (UACC-62; Homo sapiens) of 2.61 µM, a CC50 (UACC-62; [2]) of 39.1 µM and a TGI (UACC-62) of 13.2 µM. The GI50 (SNB-19; Homo sapiens) was 5.01 µM, the CC50 (SNB-19; [2]) was 52.2 µM and the TGI (SNB-19) was 20.1 µM. The GI50 (PC-3; Homo sapiens) was 6.65 µM, the CC50 (PC-3; [2]) was 55 µM and the TGI (PC-3) was 21.6 µM. The GI50 (M14; Homo sapiens) was 2.95 µM, the CC50 (M14; [2]) was 50 µM and the TGI (M14) was 13.6 µM. The GI50 (ACHN; Homo sapiens) was 2.98 µM, the CC50 (ACHN; [2]) was 36.5 µM and the TGI (ACHN) was 12.5 µM. It also gave a TGI (HCT-116) of 16 µM, a GI50 (HCT-116; Homo sapiens) of 4.2 µM and an LC50 (concentration killing 50% of cells) (HCT-116; Homo sapiens) of 46.6 µM. The GI50 (SK-OV-3; Homo sapiens) was 2.85 µM, the CC50 (SK-OV-3; [2]) was 37.2 µM and the TGI (SK-OV-3) was 13.7 µM. For the same molecule, the GI50 (NCI-H522; Homo sapiens) was 0.75 µM, the CC50 (NCI-H522; [2]) was 5.85 µM and the TGI (NCI-H522) was 2.26 µM. It also gave a GI50 (SK-MEL-28; Homo sapiens) of 3.05 µM, an LC50 (SK-MEL-28; Homo sapiens) of 41.6 µM and a TGI (SK-MEL-28) of 16.4 µM. For the same molecule, the TGI (DU-145) was 21.1 µM, the GI50 (DU-145; Homo sapiens) was 8.2 µM and the CC50 (DU-145; [2]) was 47.5 µM. For the same molecule, the TGI (CAKI-1) was 17.5 µM, the GI50 (CAKI-1; Homo sapiens) was 3.59 µM and the CC50 (CAKI-1; [2]) was 45.4 µM. It also gave a GI50 (SK-MEL-2; Homo sapiens) of 3.72 µM, an LC50 (SK-MEL-2; Homo sapiens) of 41.2 µM and a TGI (SK-MEL-2) of 12.5 µM. The GI50 (KM12; Homo sapiens) was 3.74 µM, the CC50 (KM12; [2]) was 57.4 µM and the TGI (KM12) was 14.4 µM. The GI50 ([1]; Homo sapiens) was 3.15 µM, the CC50 [1, 2] was 45.3 µM and the TGI [1] was 14.3 µM. The GI50 (U251; Homo sapiens, U-251) was 3.09 µM, the CC50 (U251; Homo sapiens, U-251, read-out: LC50 (the source's name)) was 39.4 µM and the TGI (U251) was 12.7 µM.
